# Assay results taken from ChEMBL document CHEMBL5030537 (J Med Chem, 2021).
# Assays:
# [1] = molecular target: T1, Tyrosine-protein kinase BTK (Homo sapiens, UniProt Q06187); assay: Inhibition of Btk (unknown origin) assessed as inhibition of phosphorylation of FAM-labelled peptide substrate
# [2] = molecular target: T1, Tyrosine-protein kinase BTK; assay: Inhibition of human Btk in human Raji cells assessed as PhosY223 measured after 30 mins by cellular HTRF assay; assay type: cell-based
# [3] = tested on: Rattus norvegicus; assay: Antiarthritic activity against collagen-induced arthritis Lewis rat model assessed as change in paw volume at 0.1 mg/kg, po once daily for 22 days; assay type: functional; conditions: time 22 day
# [4] = tested on: Rattus norvegicus; assay: Antiarthritic activity against collagen-induced arthritis Lewis rat model assessed as change in paw volume at 1 mg/kg, po once daily for 22 days; assay type: functional; conditions: time 22 day
# [5] = molecular target: PDE5 (Homo sapiens, UniProt O76074); assay: Inhibition of PDE5 (unknown origin) assessed as remaining activity
# [6] = Half life in Sprague-Dawley rat; assay type: ADME; conditions: in vivo
# [7] = Toxicity in rat assessed as adverse effect; conditions: in vivo
# [8] = tested on: Salmonella typhimurium; assay: Genotoxicity in Salmonella typhimurium WP2 uvrA in presence of S9 fraction by Ames test; assay type: toxicity, organism-based; conditions: salmonella enterica subsp. enterica serovar typhimurium
# [9] = GSH reactivity in pH 7.4 PBS buffer assessed as intrinsic reactivity by measuring percent remaining measured after 2 hrs; assay type: physicochemical; conditions: read-out: Stability
# [10] = tested on: Salmonella typhimurium; assay: Genotoxicity in Salmonella typhimurium TA1537 by Ames test; assay type: toxicity, organism-based; conditions: salmonella enterica subsp. enterica serovar typhimurium
# [11] = Metabolic stability in Beagle dog liver hepatocytes assessed as extraction ratio
# [12] = Toxicity in human peripheral blood lymphocytes in presence of S9 fraction by micronucleus test; assay type: subcellular, Lymphocyte
# [13] = In vivo stability in Beagle dog liver assessed as extraction ratio at 35 ml/kg
# [14] = tested on: Salmonella typhimurium; assay: Genotoxicity in Salmonella typhimurium WP2 uvrA in absence of S9 fraction by Ames test; assay type: toxicity, organism-based; conditions: salmonella enterica subsp. enterica serovar typhimurium
# [15] = tested on: Salmonella typhimurium; assay: Genotoxicity in Salmonella typhimurium TA1535 by Ames test; assay type: toxicity, organism-based; conditions: salmonella enterica subsp. enterica serovar typhimurium
# [16] = Toxicity in dog assessed as adverse effect; set-up: species or system Canis lupus familiaris; conditions: in vivo
# [17] = Thermodynamic solubility of the compound at pH 6.8 in GCDC; assay type: physicochemical; conditions: read-out: Therm_solubility
# [18] = molecular target: hERG (KCNH2) (Homo sapiens, UniProt Q12809); assay: Inhibition of hERG at 13 uM
# [19] = tested on: MDR1; assay: Efflux ratio of apparent permeability in LLC-PK1-MDR1 cells; conditions: pig
# [20] = Metabolic stability in Sprague-Dawley rat liver hepatocytes assessed as extraction ratio
# [21] = Metabolic stability in monkey liver hepatocytes assessed as extraction ratio; conditions: rhesus monkey
# [22] = tested on: Rattus norvegicus; assay: Antiarthritic activity against collagen-induced arthritis Lewis rat model assessed as inhibition of paw swelling treated po once daily for 21 days; assay type: functional, organism-based; conditions: dose 0.3-3 mg/kg, time 21.0 day
# [23] = tested on: PDE3; assay: Inhibition of PDE3 (unknown origin) assessed as remaining activity; conditions: human
# [24] = tested on: Salmonella typhimurium; assay: Genotoxicity in Salmonella typhimurium […] by Ames test; assay type: toxicity, organism-based; conditions: salmonella enterica subsp. enterica serovar typhimurium
# [25] = Thermodynamic solubility of the compound at pH 6.8 in JP2 fluid; assay type: physicochemical; conditions: read-out: Therm_solubility
# [26] = In vivo stability in Sprague-Dawley rat liver assessed as extraction ratio at 70 ml/kg
# [27] = tested on: Rattus norvegicus; assay: Antiarthritic activity against collagen-induced arthritis Lewis rat model assessed as change in paw volume at 3 mg/kg, po once daily for 22 days; assay type: functional; conditions: time 22 day
# [28] = Clearance in Beagle dog at 1 mg/kg, iv; assay type: ADME, organism-based, Canis lupus familiaris; conditions: in vivo
# [29] = Oral bioavailability in Beagle dog; assay type: ADME, organism-based, Canis lupus familiaris; conditions: in vivo
# [30] = Stability in PBS buffer measured after 2 hrs; assay type: physicochemical
# [31] = tested on: Salmonella typhimurium; assay: Genotoxicity in Salmonella typhimurium TA98 by Ames test; assay type: toxicity, organism-based; conditions: salmonella enterica subsp. enterica serovar typhimurium
# [32] = AUC in collagen-induced arthritis rat model at 3 mg/kg, po […] after 22 days; assay type: ADME, organism-based; set-up: dose 3 mg/kg, time 22 day; conditions: in vivo, 528 h
# [33] = tested on: Rattus norvegicus; assay: Antiarthritic activity against collagen-induced arthritis po dosed Lewis rat model assessed as inhibition of paw swelling measured after 22 days; assay type: organism-based; conditions: 528 h, time 22 day
# [34] = Toxicity in human peripheral blood lymphocytes in absence of S9 fraction by micronucleus test; assay type: cell-based; conditions: lymphocyte
# [35] = Half life in Beagle dog; assay type: ADME, Canis lupus familiaris; conditions: in vivo
# [36] = Thermodynamic solubility of the compound at pH 1.2 in JP1 fluid; assay type: physicochemical; conditions: read-out: Therm_solubility
# [37] = molecular target: PDE10A2 (Homo sapiens, UniProt Q9Y233); assay: Inhibition of PDE10A2 (unknown origin) assessed as remaining activity
# [38] = molecular target: Tyrosine-protein kinase Lck (Homo sapiens, UniProt P06239); assay: Inhibition of Lck (unknown origin)
# [39] = Metabolic stability in mouse liver hepatocytes assessed as extraction ratio
# [40] = Metabolic stability in human liver hepatocytes assessed as extraction ratio; conditions: mouse
# [41] = In vivo inhibition of pBTK in collagen-induced arthritis rat model at 3-30 mg/kg after 12 hrs; assay type: functional
# [42] = Plasma protein binding in Sprague-Dawley rat measured by rapid equilibrium dialysis method; assay type: ADME, cell-free; conditions: read-out: PPB (converted)
# [43] = Plasma protein binding in human measured by rapid equilibrium dialysis method; assay type: ADME, cell-free; conditions: read-out: PPB (converted)
# [44] = tested on: MDR1; assay: Apparent permeability from apical to basolateral side in LLC-PK1-MDR1 cells; assay type: ADME, cell-based, Sus scrofa; conditions: pig
# [45] = tested on: Rattus norvegicus; assay: Antiarthritic activity against collagen-induced arthritis Lewis rat model assessed as change in paw volume at 0.3 mg/kg, po once daily for 22 days; assay type: functional; conditions: time 22 day
# [46] = molecular target: Proto-oncogene tyrosine-protein kinase Src (Homo sapiens, UniProt P12931); assay: Inhibition of Src (unknown origin)
# [47] = Oral bioavailability in Sprague-Dawley rat; assay type: ADME, organism-based; conditions: in vivo
# T1 sequence (Q06187 whole entry): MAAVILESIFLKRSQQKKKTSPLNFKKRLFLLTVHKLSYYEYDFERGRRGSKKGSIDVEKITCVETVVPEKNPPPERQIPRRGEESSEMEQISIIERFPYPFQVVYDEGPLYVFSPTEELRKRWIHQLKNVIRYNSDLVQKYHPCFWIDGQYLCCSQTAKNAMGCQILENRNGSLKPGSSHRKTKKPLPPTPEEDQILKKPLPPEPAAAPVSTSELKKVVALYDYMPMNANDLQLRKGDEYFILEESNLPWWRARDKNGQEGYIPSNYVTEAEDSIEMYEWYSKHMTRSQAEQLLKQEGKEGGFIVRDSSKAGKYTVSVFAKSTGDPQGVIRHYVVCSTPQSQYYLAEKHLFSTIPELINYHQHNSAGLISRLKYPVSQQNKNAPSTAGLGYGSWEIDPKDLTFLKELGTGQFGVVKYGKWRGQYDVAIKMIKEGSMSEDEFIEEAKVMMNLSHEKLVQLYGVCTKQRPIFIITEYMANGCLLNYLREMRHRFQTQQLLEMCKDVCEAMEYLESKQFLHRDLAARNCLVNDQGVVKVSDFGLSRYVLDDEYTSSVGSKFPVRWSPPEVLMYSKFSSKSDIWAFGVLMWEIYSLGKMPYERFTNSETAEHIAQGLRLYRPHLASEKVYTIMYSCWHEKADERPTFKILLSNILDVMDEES
# Sequence of hERG (KCNH2) (Q12809 whole entry): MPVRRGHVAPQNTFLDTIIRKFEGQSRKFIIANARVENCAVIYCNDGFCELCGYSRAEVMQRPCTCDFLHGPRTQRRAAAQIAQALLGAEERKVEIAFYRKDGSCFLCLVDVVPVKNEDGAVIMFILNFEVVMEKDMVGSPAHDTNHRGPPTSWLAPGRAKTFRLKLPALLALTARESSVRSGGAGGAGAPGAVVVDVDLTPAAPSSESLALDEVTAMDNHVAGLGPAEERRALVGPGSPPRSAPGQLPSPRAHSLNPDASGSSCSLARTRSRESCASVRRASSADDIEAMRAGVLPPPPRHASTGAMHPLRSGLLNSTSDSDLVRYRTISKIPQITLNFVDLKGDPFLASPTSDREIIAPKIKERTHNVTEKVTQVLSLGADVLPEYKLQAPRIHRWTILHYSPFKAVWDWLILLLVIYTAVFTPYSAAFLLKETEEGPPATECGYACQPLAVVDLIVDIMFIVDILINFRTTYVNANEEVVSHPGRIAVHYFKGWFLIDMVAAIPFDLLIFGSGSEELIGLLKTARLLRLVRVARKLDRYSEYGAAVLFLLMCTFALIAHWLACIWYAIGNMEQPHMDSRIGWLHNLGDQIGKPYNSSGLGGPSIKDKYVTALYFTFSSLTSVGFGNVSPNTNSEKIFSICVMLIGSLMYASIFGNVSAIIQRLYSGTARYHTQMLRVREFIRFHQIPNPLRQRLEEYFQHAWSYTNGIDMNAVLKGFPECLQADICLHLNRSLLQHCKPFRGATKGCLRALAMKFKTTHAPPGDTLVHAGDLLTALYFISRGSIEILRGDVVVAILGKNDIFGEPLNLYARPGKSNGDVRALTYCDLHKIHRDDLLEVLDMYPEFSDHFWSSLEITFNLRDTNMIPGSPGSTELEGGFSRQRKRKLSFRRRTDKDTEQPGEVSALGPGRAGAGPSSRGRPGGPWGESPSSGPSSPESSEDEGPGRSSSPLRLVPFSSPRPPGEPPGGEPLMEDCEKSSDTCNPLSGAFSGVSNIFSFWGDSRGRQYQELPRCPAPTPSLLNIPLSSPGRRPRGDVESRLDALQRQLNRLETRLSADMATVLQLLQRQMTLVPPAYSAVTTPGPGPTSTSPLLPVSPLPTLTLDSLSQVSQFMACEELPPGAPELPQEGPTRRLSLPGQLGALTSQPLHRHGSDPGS
# Sequence of PDE10A2 (Q9Y233 whole entry): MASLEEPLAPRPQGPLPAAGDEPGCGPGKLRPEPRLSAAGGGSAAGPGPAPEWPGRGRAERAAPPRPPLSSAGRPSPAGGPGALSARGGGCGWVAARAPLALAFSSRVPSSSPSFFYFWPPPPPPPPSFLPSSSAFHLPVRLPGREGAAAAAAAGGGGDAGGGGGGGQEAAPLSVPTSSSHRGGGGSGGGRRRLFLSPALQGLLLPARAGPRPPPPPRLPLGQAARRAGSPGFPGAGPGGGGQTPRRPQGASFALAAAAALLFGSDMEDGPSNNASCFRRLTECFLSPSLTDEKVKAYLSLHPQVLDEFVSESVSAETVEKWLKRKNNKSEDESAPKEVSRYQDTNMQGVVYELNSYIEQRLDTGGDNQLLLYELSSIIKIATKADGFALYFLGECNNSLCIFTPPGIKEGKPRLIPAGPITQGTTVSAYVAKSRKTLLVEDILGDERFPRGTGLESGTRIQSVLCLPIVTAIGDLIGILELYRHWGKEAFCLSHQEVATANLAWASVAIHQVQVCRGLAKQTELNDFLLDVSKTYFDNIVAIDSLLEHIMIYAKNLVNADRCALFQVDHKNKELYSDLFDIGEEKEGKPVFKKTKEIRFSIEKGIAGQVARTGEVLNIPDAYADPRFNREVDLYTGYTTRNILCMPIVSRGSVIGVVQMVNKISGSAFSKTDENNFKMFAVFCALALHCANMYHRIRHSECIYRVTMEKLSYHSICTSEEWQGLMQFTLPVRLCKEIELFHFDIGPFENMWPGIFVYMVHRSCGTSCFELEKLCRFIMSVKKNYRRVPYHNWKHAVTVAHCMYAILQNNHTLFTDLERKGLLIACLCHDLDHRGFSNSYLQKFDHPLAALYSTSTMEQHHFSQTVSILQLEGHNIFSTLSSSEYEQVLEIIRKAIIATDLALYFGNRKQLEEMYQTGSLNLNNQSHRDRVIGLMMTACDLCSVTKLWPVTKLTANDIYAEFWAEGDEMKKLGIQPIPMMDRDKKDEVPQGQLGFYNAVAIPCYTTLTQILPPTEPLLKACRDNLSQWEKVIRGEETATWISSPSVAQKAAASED
# Sequence of Proto-oncogene tyrosine-protein kinase Src (P12931 2-536 limits assumed): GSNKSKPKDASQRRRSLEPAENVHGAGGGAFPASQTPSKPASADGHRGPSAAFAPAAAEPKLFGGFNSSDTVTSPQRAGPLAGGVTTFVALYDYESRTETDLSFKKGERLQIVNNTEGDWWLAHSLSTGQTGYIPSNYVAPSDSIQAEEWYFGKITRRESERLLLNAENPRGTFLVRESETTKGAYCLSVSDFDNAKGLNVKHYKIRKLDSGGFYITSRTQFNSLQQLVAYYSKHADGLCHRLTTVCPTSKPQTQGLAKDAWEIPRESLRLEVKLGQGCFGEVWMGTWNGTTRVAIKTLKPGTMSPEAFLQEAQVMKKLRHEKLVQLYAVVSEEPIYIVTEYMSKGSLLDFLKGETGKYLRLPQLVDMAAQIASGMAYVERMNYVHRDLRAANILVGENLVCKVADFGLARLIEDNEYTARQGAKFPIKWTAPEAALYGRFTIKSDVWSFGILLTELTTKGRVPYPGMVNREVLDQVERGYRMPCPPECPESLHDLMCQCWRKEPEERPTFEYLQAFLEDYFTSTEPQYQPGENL
# Sequence of Tyrosine-protein kinase Lck (P06239 whole entry): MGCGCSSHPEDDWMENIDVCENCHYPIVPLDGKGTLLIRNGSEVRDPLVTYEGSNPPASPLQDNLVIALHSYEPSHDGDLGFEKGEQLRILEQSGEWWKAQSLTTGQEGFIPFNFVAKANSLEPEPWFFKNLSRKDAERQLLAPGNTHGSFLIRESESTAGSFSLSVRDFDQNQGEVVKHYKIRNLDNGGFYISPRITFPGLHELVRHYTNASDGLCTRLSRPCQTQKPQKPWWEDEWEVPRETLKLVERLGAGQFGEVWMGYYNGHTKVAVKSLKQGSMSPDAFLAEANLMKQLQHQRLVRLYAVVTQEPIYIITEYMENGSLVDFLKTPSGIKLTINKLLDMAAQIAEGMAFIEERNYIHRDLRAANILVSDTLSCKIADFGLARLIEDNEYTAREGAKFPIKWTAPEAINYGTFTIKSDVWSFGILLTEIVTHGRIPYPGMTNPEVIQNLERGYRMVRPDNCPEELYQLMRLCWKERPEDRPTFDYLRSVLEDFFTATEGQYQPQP
smiles,measurement,setting,value
NC(=O)c1nnc2ccccc2c1N,IC50,[1],3160 nM
CC(C)Nc1nc(-c2n[nH]c(=O)[nH]2)cc2ccccc12,EC50,[2],158 nM
same,IC50,[1],20 nM
CC(C)Oc1nc(-c2n[nH]c(=O)[nH]2)cc2ccccc12,EC50,[2],100 nM
same,IC50,[1],10 nM
CCOc1nc(-c2n[nH]c(=O)[nH]2)cc2ccccc12,IC50,[1],50.1 nM
COc1nc2ccccc2cc1-c1n[nH]c(=O)[nH]1,IC50,[1],3160 nM
Cc1cc(OC(C)C)nc(-c2n[nH]c(=O)[nH]2)c1,IC50,[1],251 nM
O=c1[nH]nc(-c2ccccn2)[nH]1,IC50,[1],316000 nM
CCNc1nc(-c2n[nH]c(=O)[nH]2)cc2ccccc12,EC50,[2],794 nM
same,IC50,[1],100 nM
O=c1[nH]nc(-c2nc3ccccc3[nH]2)[nH]1,IC50,[1],10000 nM
CCOc1ncccc1-c1n[nH]c(=O)[nH]1,IC50,[1],> 100000 nM
CCOc1cccc(-c2n[nH]c(=O)[nH]2)n1,IC50,[1],6310 nM
COc1ncccc1-c1n[nH]c(=O)[nH]1,IC50,[1],100000 nM
CCCOc1nc(-c2n[nH]c(=O)[nH]2)cc2ccccc12,EC50,[2],398 nM
same,IC50,[1],25.1 nM
CC(=O)N1CC[C@H](Oc2nc(-c3n[nH]c(=O)[nH]3)cc3ccccc23)C1,IC50,[1],31.6 nM
O=c1[nH]nc(-c2cccnc2)[nH]1,IC50,[1],126000 nM
CC(C)COc1cccc(-c2n[nH]c(=O)[nH]2)n1,IC50,[1],1580 nM
O=c1[nH]nc(-c2cc3ccccc3cn2)[nH]1,IC50,[1],5010 nM
C=CC(=O)N1CC[C@@H](Oc2nc(-c3n[nH]c(=O)[nH]3)cc3ccccc23)C1,EC50,[2],501 nM
same,IC50,[1],31.6 nM
COc1cccc(-c2n[nH]c(=O)[nH]2)n1,IC50,[1],31600 nM
COc1nc(-c2n[nH]c(=O)[nH]2)cc2ccccc12,IC50,[1],398 nM
Oc1n[nH]c(-c2ccccc2)n1,IC50,[1],501000 nM
C=CC(=O)N1CC[C@H](Oc2nc(-c3n[nH]c(=O)[nH]3)cc3ccccc23)C1 [TAK-020],Activity,[3],21%
same,Activity,[4],173%
same,Activity,[5],67%
same,half-life,[6],0.7 h
same,Activity,[7],Non-Toxic
same,Activity,[8],Non-Toxic
same,remaining at 2 h,[9],75%
same,Activity,[10],Non-Toxic
same,hepatic extraction ratio,[11],0.48
same,Activity,[12],Non-Toxic
same,hepatic extraction ratio,[13],0.81
same,Activity,[14],Non-Toxic
same,Activity,[15],Non-Toxic
same,Activity,[16],Non-Toxic
same,solubility thermodynamic,[17],6.8 µg/mL
same,inhibition at 13 µM,[18],18%
same,efflux ratio,[19],10.8
same,hepatic extraction ratio,[20],0.31
same,hepatic extraction ratio,[21],0.37
same,inhibition,[22],Dose-Dependent Effect
same,Activity,[23],96%
same,Activity,[24],Non-Toxic
same,solubility thermodynamic,[25],< 1.1 µg/mL
same,hepatic extraction ratio,[26],> 0.9
same,Activity,[27],240%
same,clearance,[28],28.5 mL/min/kg
same,bioavailability,[29],6.5%
same,Stability,[30],Stable
same,Activity,[31],Non-Toxic
same,AUC,[32],4.2 ng·h/mL
same,ED50,[33],0.17 mg/kg
same,Activity,[34],Non-Toxic
same,half-life,[35],3 h
same,solubility thermodynamic,[36],< 0.1 µg/mL
same,Activity,[37],59%
same,IC50,[38],1000 nM
same,hepatic extraction ratio,[39],0.62
same,hepatic extraction ratio,[40],0.21
same,inhibition in vivo at 30 mg/kg,[41],> 50%
same,fraction unbound,[42],0.098
same,fraction unbound,[43],0.113
same,Papp A→B,[44],1.89 ×10⁻⁶ cm/s
same,Activity,[45],75%
same,IC50,[46],631 nM
same,EC50,[2],1.26 nM
same,F,[47],6%
same,IC50,[1],< 2 nM
